Data published in ChEMBL document CHEMBL4507276 (2021).

Experiments:
Conditions in all cases: Compound concentration 1000.0 nM
[1] = target: Atypical kinase COQ8A, mitochondrial (Homo sapiens) (UniProt Q8NI60)
[2] = target: Citron Rho-interacting kinase (Homo sapiens) (UniProt O14578)
[3] = target: Dual specificity protein kinase CLK1 (Homo sapiens) (UniProt P49759)
[4] = system: Epidermal growth factor receptor (Homo sapiens), P00533 [UNDEFINED MUTATION]
[5] = target: Ephrin type-A receptor 7 (Homo sapiens) (UniProt Q15375)
Ephrin type-A receptor 7 (Homo sapiens), sequence (Q15375 28-998 limits assumed): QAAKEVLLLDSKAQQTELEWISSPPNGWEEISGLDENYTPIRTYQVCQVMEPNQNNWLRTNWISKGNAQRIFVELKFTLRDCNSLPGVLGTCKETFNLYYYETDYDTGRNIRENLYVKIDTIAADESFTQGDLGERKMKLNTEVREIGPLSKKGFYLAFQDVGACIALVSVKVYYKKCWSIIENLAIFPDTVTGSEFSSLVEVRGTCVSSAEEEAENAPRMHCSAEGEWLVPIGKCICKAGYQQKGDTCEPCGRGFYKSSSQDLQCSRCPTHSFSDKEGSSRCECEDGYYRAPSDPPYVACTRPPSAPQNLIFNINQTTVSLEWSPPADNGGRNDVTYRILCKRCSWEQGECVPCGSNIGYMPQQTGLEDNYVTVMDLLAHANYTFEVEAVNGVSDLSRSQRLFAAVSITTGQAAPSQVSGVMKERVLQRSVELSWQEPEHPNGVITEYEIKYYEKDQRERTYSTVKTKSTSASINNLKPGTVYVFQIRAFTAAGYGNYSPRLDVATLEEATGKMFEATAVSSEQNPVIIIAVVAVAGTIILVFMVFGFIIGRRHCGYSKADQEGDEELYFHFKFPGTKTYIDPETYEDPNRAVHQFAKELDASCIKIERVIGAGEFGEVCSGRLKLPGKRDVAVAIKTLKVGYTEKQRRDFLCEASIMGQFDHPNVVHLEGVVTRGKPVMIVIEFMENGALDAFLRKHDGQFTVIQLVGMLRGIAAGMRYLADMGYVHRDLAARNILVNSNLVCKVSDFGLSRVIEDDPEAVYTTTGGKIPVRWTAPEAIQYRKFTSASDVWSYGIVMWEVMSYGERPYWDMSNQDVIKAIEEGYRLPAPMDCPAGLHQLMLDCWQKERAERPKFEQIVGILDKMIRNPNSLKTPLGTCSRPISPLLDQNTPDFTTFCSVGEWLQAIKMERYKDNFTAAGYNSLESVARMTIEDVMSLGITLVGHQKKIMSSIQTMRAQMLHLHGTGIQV

[6] = target: Receptor tyrosine-protein kinase erbB-2 (Homo sapiens) (UniProt P04626)
Receptor tyrosine-protein kinase erbB-2 (Homo sapiens), sequence (P04626 whole entry): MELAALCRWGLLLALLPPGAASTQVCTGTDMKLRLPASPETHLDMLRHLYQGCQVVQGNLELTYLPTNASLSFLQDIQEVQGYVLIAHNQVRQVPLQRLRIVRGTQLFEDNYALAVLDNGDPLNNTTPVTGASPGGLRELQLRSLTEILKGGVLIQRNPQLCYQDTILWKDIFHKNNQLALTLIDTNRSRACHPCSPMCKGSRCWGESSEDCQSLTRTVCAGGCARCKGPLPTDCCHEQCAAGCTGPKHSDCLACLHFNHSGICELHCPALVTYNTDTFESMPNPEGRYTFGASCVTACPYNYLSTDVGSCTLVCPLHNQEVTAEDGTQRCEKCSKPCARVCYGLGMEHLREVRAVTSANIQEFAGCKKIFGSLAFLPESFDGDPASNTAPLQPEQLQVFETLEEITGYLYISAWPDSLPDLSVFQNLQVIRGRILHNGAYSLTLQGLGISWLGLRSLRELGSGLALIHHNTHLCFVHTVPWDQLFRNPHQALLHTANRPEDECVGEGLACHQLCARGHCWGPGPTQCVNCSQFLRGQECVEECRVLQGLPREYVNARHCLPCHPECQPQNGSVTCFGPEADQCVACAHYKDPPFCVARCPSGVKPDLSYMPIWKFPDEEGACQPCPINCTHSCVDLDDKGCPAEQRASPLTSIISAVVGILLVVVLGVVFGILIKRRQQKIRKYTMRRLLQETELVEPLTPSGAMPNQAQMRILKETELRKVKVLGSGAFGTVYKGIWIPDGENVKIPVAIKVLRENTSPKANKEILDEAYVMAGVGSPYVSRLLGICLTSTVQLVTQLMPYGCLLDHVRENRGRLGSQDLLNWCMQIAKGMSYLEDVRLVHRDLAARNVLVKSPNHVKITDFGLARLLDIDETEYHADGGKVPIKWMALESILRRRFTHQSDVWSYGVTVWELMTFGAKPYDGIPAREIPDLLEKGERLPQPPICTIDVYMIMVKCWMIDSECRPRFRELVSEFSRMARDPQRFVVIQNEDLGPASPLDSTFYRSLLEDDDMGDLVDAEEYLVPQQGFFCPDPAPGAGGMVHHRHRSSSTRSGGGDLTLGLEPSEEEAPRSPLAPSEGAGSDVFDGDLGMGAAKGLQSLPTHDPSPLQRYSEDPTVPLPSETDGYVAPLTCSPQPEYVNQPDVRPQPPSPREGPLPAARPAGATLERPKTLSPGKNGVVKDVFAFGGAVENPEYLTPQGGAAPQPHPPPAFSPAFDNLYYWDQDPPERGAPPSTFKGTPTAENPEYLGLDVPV

[7] = system: Receptor-type tyrosine-protein kinase FLT3 (Homo sapiens), P36888 [R834Q]
[8] = target: T1, Beta-adrenergic receptor kinase 1 (Homo sapiens) (UniProt P25098)
T1 sequence (whole entry): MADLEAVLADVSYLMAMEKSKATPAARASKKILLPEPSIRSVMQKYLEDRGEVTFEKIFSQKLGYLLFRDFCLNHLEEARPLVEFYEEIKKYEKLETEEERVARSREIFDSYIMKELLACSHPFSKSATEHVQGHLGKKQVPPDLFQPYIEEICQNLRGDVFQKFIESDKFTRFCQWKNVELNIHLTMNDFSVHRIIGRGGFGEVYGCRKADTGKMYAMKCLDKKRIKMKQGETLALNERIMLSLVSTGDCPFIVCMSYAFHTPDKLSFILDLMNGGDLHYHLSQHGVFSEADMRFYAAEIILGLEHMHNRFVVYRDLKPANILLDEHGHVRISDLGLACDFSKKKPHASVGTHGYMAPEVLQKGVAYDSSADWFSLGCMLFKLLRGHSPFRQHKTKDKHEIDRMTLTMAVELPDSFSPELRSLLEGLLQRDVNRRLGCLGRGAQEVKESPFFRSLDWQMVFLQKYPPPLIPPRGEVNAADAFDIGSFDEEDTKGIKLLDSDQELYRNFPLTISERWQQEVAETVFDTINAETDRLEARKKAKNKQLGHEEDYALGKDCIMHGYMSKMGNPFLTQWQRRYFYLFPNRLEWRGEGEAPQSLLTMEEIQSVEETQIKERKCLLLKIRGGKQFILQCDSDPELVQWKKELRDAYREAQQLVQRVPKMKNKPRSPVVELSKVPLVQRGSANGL

[9] = target: T2, Inhibitor of nuclear factor kappa-B kinase subunit epsilon (Homo sapiens) (UniProt Q14164)
T2 sequence (whole entry): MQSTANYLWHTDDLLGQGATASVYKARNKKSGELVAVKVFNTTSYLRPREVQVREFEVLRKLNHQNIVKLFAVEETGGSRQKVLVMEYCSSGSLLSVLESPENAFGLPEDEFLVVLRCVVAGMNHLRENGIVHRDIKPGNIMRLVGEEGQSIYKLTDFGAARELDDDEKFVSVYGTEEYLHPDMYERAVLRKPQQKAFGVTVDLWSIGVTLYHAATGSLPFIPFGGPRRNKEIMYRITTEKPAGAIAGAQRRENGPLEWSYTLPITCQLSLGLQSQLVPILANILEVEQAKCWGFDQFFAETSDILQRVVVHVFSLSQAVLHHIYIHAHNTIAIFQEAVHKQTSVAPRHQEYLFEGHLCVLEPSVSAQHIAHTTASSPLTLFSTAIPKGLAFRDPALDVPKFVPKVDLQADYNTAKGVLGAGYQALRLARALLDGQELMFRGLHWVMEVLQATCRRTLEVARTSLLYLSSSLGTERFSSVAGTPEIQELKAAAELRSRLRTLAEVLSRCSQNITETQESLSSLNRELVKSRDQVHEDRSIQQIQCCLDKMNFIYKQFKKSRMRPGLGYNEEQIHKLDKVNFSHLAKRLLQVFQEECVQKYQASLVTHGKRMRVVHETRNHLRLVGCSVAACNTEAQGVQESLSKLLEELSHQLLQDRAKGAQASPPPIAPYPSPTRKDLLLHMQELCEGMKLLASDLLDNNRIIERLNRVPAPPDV

[10] = target: Tyrosine-protein kinase Lyn (Homo sapiens) (UniProt P07948)
[11] = target: Serine/threonine-protein kinase MARK2 (Homo sapiens) (UniProt Q7KZI7)
[12] = target: T3, Mitogen-activated protein kinase 13 (Homo sapiens) (UniProt O15264)
T3 sequence (whole entry): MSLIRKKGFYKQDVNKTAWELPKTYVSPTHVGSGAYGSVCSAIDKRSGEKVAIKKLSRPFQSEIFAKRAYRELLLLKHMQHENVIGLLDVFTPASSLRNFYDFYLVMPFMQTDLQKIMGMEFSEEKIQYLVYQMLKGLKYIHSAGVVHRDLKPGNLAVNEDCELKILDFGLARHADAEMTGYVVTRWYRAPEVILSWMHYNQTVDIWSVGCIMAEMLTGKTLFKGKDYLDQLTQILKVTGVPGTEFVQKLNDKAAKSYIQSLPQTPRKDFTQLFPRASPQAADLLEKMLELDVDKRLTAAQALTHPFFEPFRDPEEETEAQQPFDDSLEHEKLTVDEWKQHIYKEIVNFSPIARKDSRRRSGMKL

[13] = target: Serine/threonine-protein kinase pim-3 (Homo sapiens) (UniProt Q86V86)
[14] = target: Interferon-induced, double-stranded RNA-activated protein kinase (Homo sapiens) (UniProt P19525)
Interferon-induced, double-stranded RNA-activated protein kinase (Homo sapiens), sequence (P19525 whole entry): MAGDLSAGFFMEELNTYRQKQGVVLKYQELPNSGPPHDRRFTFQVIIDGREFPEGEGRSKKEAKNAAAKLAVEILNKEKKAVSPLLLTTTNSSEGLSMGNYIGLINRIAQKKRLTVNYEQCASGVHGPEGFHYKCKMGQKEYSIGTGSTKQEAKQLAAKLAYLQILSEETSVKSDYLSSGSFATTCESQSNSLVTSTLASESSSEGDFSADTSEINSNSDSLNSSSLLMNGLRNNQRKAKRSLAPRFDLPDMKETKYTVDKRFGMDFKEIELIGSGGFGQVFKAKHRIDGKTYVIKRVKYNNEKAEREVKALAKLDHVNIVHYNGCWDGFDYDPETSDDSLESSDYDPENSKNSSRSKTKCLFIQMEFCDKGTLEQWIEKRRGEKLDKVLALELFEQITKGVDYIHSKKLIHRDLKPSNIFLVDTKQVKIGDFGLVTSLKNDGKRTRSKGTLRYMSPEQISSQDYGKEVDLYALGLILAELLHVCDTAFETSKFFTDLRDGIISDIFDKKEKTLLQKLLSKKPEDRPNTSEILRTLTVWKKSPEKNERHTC

[15] = target: Proto-oncogene tyrosine-protein kinase Src (Homo sapiens) (UniProt P12931)
Proto-oncogene tyrosine-protein kinase Src (Homo sapiens), sequence (P12931 2-536 limits assumed): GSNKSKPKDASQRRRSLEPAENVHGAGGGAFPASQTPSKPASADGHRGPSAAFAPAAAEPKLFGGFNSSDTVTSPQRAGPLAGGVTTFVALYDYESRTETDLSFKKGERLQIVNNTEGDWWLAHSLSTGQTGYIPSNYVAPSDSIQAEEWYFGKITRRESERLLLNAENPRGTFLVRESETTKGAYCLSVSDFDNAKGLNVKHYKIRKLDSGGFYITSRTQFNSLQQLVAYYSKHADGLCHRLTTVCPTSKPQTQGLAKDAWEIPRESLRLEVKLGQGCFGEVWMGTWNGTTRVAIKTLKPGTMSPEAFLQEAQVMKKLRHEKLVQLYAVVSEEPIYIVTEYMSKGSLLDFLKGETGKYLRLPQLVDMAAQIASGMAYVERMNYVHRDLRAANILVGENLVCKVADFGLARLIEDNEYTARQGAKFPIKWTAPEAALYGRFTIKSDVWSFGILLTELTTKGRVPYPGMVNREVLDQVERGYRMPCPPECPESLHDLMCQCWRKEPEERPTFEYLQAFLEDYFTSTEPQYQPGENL

[16] = target: Angiopoietin-1 receptor (Homo sapiens) (UniProt Q02763)
Angiopoietin-1 receptor (Homo sapiens), sequence (Q02763 whole entry): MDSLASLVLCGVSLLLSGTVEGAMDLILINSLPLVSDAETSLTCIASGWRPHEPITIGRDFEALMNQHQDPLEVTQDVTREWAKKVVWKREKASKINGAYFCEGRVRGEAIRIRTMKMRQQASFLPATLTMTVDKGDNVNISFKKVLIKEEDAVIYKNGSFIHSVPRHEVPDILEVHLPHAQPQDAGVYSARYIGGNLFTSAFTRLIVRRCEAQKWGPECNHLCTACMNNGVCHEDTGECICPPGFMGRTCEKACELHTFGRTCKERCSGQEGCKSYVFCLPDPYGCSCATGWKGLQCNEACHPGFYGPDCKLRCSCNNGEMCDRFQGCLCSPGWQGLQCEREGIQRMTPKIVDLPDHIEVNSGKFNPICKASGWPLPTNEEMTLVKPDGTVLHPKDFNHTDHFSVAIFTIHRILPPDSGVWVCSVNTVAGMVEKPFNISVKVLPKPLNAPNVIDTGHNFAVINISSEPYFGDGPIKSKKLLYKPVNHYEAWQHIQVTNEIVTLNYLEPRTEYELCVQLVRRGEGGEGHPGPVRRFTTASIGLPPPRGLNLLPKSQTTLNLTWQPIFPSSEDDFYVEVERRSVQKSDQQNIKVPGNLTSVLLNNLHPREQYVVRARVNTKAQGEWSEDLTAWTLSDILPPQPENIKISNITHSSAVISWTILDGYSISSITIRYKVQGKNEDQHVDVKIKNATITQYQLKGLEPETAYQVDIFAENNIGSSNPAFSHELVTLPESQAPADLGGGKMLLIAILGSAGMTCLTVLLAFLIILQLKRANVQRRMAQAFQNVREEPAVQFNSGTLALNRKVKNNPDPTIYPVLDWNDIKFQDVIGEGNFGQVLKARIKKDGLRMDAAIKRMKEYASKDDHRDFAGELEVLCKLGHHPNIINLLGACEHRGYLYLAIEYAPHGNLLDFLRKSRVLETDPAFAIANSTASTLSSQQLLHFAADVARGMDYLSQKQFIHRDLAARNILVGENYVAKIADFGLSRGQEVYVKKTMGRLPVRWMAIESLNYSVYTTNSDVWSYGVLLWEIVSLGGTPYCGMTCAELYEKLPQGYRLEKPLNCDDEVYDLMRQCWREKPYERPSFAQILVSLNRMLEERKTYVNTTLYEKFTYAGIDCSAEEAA

Measured: residual activity

Atypical kinase COQ8A, mitochondrial (Homo sapiens), sequence (Q8NI60 163-647 limits assumed): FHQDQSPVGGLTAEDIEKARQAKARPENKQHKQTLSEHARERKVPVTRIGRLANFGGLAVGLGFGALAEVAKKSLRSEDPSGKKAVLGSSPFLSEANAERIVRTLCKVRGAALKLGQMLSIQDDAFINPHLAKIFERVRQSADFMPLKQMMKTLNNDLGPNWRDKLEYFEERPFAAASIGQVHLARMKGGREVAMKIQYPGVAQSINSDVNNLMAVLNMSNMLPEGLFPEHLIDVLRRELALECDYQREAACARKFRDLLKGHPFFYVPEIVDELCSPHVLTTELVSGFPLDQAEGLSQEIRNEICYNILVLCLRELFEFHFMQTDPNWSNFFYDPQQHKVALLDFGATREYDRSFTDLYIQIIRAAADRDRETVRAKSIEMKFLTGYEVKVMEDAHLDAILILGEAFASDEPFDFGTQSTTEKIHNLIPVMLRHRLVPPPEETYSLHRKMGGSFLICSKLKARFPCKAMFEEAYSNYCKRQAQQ

CN(C)C(=O)Cn1cc(-c2nc(C3(c4ccc(-c5cnc(N)nc5)cc4)CC3)no2)cn1 [BI 0153]
inactive: [1] 99% | [2] 86% | [3] 100% | [4] 79% | [5] 92% | [6] 80% | [7] 90% | [8] 67% | [9] 57% | [10] 79% | [11] 92% | [12] 91% | [13] 100% | [14] 100% | [15] 84% | [16] 88%

CN(C)C(=O)Cn1cc(-c2nc([C@@](C)(c3ccc(-c4cnc(N)nc4)cc3)C3CC3)no2)cn1 [BI 665915]
inactive: [1] 100% | [2] 84% | [3] 93% | [4] 75% | [5] 98% | [6] 100% | [7] 87% | [8] 78% | [9] 86% | [10] 87% | [11] 100% | [12] 93% | [13] 96% | [14] 100% | [15] 90% | [16] 100%
